{"source": "paper PMC8222394", "about": "(Nature Communications, 2021)", "key": {"SARS-CoV-2 pseudovirus [1]": {"tested_on": "SARS-CoV-2 pseudovirus", "experiment": "microbe, parasite or virus in culture", "format": "cell-based", "settings": "Severe acute respiratory syndrome-related coronavirus"}, "SARS-CoV-2 pseudovirus [2]": {"tested_on": "SARS-CoV-2 pseudovirus", "format": "cell-based"}, "SARS-CoV-2 pseudovirus [3]": {"tested_on": "SARS-CoV-2 pseudovirus", "format": "cell-based", "remark": "listed apart in the source"}, "[4]": {"tested_on": "SARS-CoV-2 (wildtype-USA-WA1/2020)", "format": "cell-based"}, "TMPRSS2-V5": {"tested_on": "TMPRSS2-V5", "format": "cell-based, human"}, "corin": {"tested_on": "corin", "experiment": "RT-qPCR of CORIN mRNA in Caco-2 cells", "format": "cell-based, human", "settings": "Fig. S3B, Caco-2, 6 hr, relative to Veh"}, "DCAF1": {"tested_on": "DCAF1", "experiment": "qPCR of DCAF1 gene expression in Caco-2 cells", "format": "cell-based, human"}, "E-cadherin": {"tested_on": "E-cadherin", "experiment": "Immunoblot of E-cadherin in Caco-2 cells", "format": "cell-based, human"}, "Ace2-GFP": {"tested_on": "Ace2-GFP", "experiment": "Immunoblot of Ace2-GFP in Beas-2B cells", "format": "cell-based"}, "TMPRSS2 [5]": {"tested_on": "TMPRSS2", "settings": "for TMPRSS2 densitometry (relative to 0): Fig. 4B, Caco-2, 18 h, listed as HHT"}, "TMPRSS2 [6]": {"tested_on": "TMPRSS2", "settings": "Calu-3 cells"}, "TMPRSS2 [7]": {"tested_on": "TMPRSS2"}, "TMPRSS2 [8]": {"tested_on": "TMPRSS2", "settings": "Caco-2 cells, 18 h treatment then washout"}, "SARS-CoV-2": {"tested_on": "SARS-CoV-2", "settings": "cited from earlier work"}, "[9]": {"settings": "cited from earlier work"}, "in vitro": {"experiment": "in vitro", "settings": "human"}, "TMPRSS2 [10]": {"target": "TMPRSS2 (Homo sapiens, UniProt O15393)", "sequence (O15393 106-492)": "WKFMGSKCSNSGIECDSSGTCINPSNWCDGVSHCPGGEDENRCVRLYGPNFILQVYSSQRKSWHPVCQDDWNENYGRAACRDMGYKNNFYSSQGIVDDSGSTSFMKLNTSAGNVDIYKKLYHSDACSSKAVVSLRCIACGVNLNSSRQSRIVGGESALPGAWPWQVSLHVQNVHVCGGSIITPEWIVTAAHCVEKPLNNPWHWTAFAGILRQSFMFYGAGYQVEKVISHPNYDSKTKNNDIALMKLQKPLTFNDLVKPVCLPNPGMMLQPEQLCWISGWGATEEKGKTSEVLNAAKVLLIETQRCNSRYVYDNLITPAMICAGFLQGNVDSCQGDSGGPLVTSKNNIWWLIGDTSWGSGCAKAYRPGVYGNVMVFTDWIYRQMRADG", "experiment": "TMPRSS2 activity assay (Boc-Gln-Ala-Arg-MCA fluorescence)", "format": "biochemical", "design": "purchased LSBio", "settings": "for TMPRSS2 activity (FigS9 source data): replicates", "procedure": "Fluorescence (380-15 nm excitation/470-20 nm emission) of the samples was monitored over 4:45 h and the slope of the curves was calculated by linear regression analysis and used as output for TMPRSS2 activity."}, "[11]": {"settings": "Fig. S3B, Caco-2, 6 hr, relative to Veh"}}, "note": "Values joined by “and” are separate entries in the source; they are usually repeats but may differ in a detail not shown here. Equal entries are not always repeated. Where two headings read alike, the source gives them in different places.", "data": [{"smiles": "COC(=O)C[C@](O)(CCCC(C)(C)O)C(=O)O[C@@H]1C(OC)=C[C@]23CCCN2CCc2cc4c(cc2[C@H]13)OCO4", "note": "[Homoharringtonine]", "values": [{"measurement": "IC50", "setting": "SARS-CoV-2 pseudovirus [1]; Caco-2, read-out: In vitro IC50 (viral entry)", "value": "~30", "unit": "nM"}, {"measurement": "IC50", "setting": "SARS-CoV-2 pseudovirus [1]; Caco-2, read-out: concentration for 50% reduction in the level of pseudoviral entry", "value": "~300", "unit": "nM"}, {"measurement": "pseudoviral GFP expression", "setting": "SARS-CoV-2 pseudovirus [2]", "value": "markedly reduced levels of GFP expression"}, {"measurement": "pseudoviral luciferase reporter signal", "setting": "SARS-CoV-2 pseudovirus [3]", "value": "dose-dependent reduction of the luciferase signal"}, {"measurement": "signal relative to Control (FigS7 source data)", "setting": "SARS-CoV-2 pseudovirus [3]", "value": "0.9261 and 0.5325 and 0.6307"}, {"measurement": "EC50 observed in TMPRSS2-expressing Calu-3 cells", "setting": "[4]", "value": "in the sub-micromolar range"}, {"measurement": "reduction of SARS-CoV-2 viral infection", "setting": "[4]", "value": "highly effective in reducing SARS-CoV-2 viral infection"}, {"measurement": "TMPRSS2-V5 versus LacZ-V5 expression", "setting": "TMPRSS2-V5", "value": "selectively reduced TMPRSS2 expression"}, {"measurement": "CORIN mRNA expression", "setting": "corin", "value": "1.163 and 0.982 and 0.932 and 0.999"}, {"measurement": "DCAF1 gene expression", "setting": "DCAF1; Caco-2, 3µM", "value": "do not affect DCAF1 gene expression"}, {"measurement": "relative DCAF1 gene expression", "setting": "DCAF1; block Vehicle/HFG/HHT, replicates, listed as HHT", "value": "1.551 and 2.869 and 1.311"}, {"measurement": "E-cadherin protein", "setting": "E-cadherin", "value": "unaffected"}, {"measurement": "Ace2 protein", "setting": "Ace2-GFP", "value": "unaffected"}, {"measurement": "time to substantial reduction in TMPRSS2 expression", "setting": "TMPRSS2 [5]; Caco-2 cells, 3 µM", "value": "within three hours"}, {"measurement": "endogenous TMPRSS2 protein expression", "setting": "TMPRSS2 [5]; Caco-2 cells, 18 h", "value": "marked reduction"}, {"measurement": "TMPRSS2 densitometry (relative to 0)", "setting": "TMPRSS2 [5]; head 0.3 (unit not given)", "value": "0.2253 and 0.285"}, {"measurement": "TMPRSS2 densitometry (relative to 0)", "setting": "TMPRSS2 [5]; head 1", "value": "0.1372 and 0.2276"}, {"measurement": "TMPRSS2 densitometry (relative to 0)", "setting": "TMPRSS2 [5]; head 3", "value": "0.1102 and 0.1378"}, {"measurement": "TMPRSS2 protein levels", "setting": "TMPRSS2 [6]", "value": "qualitatively similar decreases"}, {"measurement": "TMPRSS2 transcription", "setting": "TMPRSS2 [7]; Caco-2 cells", "value": "modestly increased"}, {"measurement": "TMPRSS2 mRNA expression, Set1", "setting": "TMPRSS2 [7]; [11]", "value": "2.5 and 2.009 and 1.288 and 1.873"}, {"measurement": "TMPRSS2 mRNA expression, set2", "setting": "TMPRSS2 [7]; [11]", "value": "2.103 and 1.771 and 1.821 and 2.33"}, {"measurement": "TMPRSS2 mRNA expression, set3", "setting": "TMPRSS2 [7]; [11]", "value": "2.872 and 1.654 and 1.63 and 2.705"}, {"measurement": "recovery of TMPRSS2 levels after drug removal", "setting": "TMPRSS2 [8]", "value": "returned close to baseline roughly six hours after drug removal"}, {"measurement": "EC50", "setting": "SARS-CoV-2", "value": 2100, "unit": "nM"}, {"measurement": "clinical adverse events", "setting": "[9]", "value": "grade III or IV adverse events, including severe myelosuppression"}, {"measurement": "toxicity profile", "setting": "[9]", "value": "relatively toxic agent with an adverse side effect profile"}, {"measurement": "CC50", "setting": "in vitro", "value": "> 10000", "unit": "nM"}, {"measurement": "TMPRSS2 activity (FigS9 source data)", "setting": "TMPRSS2 [10]; 0.08 µM", "value": "0.4186 and 0.4254 and 0.3869 and 0.4813"}, {"measurement": "TMPRSS2 activity (FigS9 source data)", "setting": "TMPRSS2 [10]; 0.4 µM", "value": "0.428 and 0.3513 and 0.3883 and 0.3736"}, {"measurement": "TMPRSS2 activity (FigS9 source data)", "setting": "TMPRSS2 [10]; 2 µM", "value": "0.3803 and 0.3278 and 0.3209 and 0.2843"}, {"measurement": "TMPRSS2 catalytic activity", "setting": "TMPRSS2 [10]; recombinant TMPRSS2, preliminary", "value": "do not inhibit TMPRSS2 activity"}]}]}
